The source of these data is PMC6095626, “Screening of the Pathogen Box for inhibitors with dual efficacy against Giardia lamblia and Cryptosporidium parvum” (PLoS Neglected Tropical Diseases, 2018).

In assay [1] the test system is G. lamblia trophozoites (luciferase expressing, WBC6). As to the kind of experiment: microbe, parasite or virus in culture. It counts as cell-based, Giardia lamblia. Particulars: initial Pathogen Box screen, single concentration 16 µM, inhibition compared to DMSO wells. The method, boiled down: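 Incubation ran 24 h at 37 °C under anaerobic conditions, with compound added in equal volume to trophozoites (WBC6, luciferase-expressing, 250,000 cells/mL). Bioluminescence was the read-out, cross-checked by MOXI Z counts on a duplicate plate; metronidazole served as control (1:2 dilutions from 40 μM).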

The subject of assay [2] is C. parvum (UGA1 Nluc expressing strain in HCT-8 cells). As to the kind of experiment: microbe, parasite or virus in culture. It counts as cell-based, Cryptosporidium parvum. Particulars: for Crypto (10 uM) Mean % inhibition: initial Pathogen Box screen, single concentration 10 µM, inhibition compared to DMSO wells. The method, boiled down: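 Parasite growth quantified by NanoLuc luminescence from lysed infected HCT-8 cells, with EC50 fitted from dose curves. Compounds, single-dose 10 μM or serially diluted, were added to confluent 48 h monolayers before infection with bleached UGA1 Nluc oocysts.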

Consider `Nc1ncc(Br)cc1-c1nc2cc(Cl)cnc2[nH]1` [MMV676358], for which the “Giardia (16 uM) Mean % inhibition” value in assay [1] came to 90%. Moreover, in assay [2], the “Crypto (10 uM) Mean % inhibition” value was “X* (Mean or standard deviation are negative but not significantly different from the control to be a growth promoter)”.
Taken in the same sequence, the figures for `Brc1c(-c2ccc3c(c2)OCO3)nc2ncccn12` [MMV676377] were 40% and “X* (Mean or standard deviation are negative but not significantly different from the control to be a growth promoter)”.
For `COc1cccc(OCC(=O)c2ccc(Br)cc2)c1` [MMV676379], in assay [1], the “Giardia (16 uM) Mean % inhibition” value is listed as 80%. In assay [2], the “Crypto (10 uM) Mean % inhibition” value is on record as 55%.
Taken in the same sequence, the figures for `CC(=O)Nc1ccc(NC(=O)c2cc(-c3cc(Cl)ccc3O)n[nH]2)cc1` [MMV676380] were “X* (Mean or standard deviation are negative but not significantly different from the control to be a growth promoter)” and 34%.
Taken in the same sequence, the figures for `Cn1ncc2c(N3CCOCC3)nc(NCCc3c[nH]c4ccccc34)nc21` [MMV676382] were 60% and 83%.
For `CCC(Sc1nc2ccccc2o1)C(=O)Nc1nccs1` (centres unmarked) [MMV676383], in assay [1], the “Giardia (16 uM) Mean % inhibition” value came out at 88%. For the same compound, in assay [2], the “Crypto (10 uM) Mean % inhibition” value is given as 57%.
For the compound `N#Cc1nc(-c2ccccc2F)oc1NCCc1ccccc1` [MMV676384], in assay [1], the “Giardia (16 uM) Mean % inhibition” value stood at 21%. The “Crypto (10 uM) Mean % inhibition” value in assay [2] was 40%.
On the same counts, the results for `Cc1cccc(Cn2ccc(NC(=O)c3ccc4c(c3)OCO4)n2)c1` [MMV676386] are 57% and 53%.
As to `COc1cccc(-n2nnnc2S(=O)(=O)Cc2ccccc2)c1` [MMV676388], the “Giardia (16 uM) Mean % inhibition” value in assay [1] is reported as 38%. Also, the “Crypto (10 uM) Mean % inhibition” value in assay [2] worked out at 67%.
Taken in the same sequence, the figures for `O=C(c1n[nH]c2c1CCCC2)N1CCN(Cc2ccc3c(c2)OCO3)CC1` [MMV676389] were 66% and “X* (Mean or standard deviation are negative but not significantly different from the control to be a growth promoter)”.
In the case of `CCS(=O)(=O)N(Cc1ccco1)Cc1cc2ccc(C)cc2[nH]c1=O` [MMV676398], the “Giardia (16 uM) Mean % inhibition” value in assay [1] turned out to be 22%. The “Crypto (10 uM) Mean % inhibition” value in assay [2] is reported as “X* (Mean or standard deviation are negative but not significantly different from the control to be a growth promoter)”.
Turning to `c1coc(CNc2nc(N3CCCCC3)nc3ccccc23)c1` [MMV676401], the “Giardia (16 uM) Mean % inhibition” value in assay [1] stood at 76%. The “Crypto (10 uM) Mean % inhibition” value in assay [2] is on record as 48%.
On to `CC(C)n1ncc2c(C(=O)NCC(c3cccs3)N3CCOCC3)cc(-c3ccccc3)nc21` (centres unmarked) [MMV676406], for which the “Giardia (16 uM) Mean % inhibition” value in assay [1] amounted to 34%. In addition, the “Crypto (10 uM) Mean % inhibition” value in assay [2] is “X* (Mean or standard deviation are negative but not significantly different from the control to be a growth promoter)”.
Take `O=C(COc1cccc(F)c1)Nc1nc(-c2ccccn2)cs1` [MMV676409]: the “Giardia (16 uM) Mean % inhibition” value in assay [1] is recorded as “X* (Mean or standard deviation are negative but not significantly different from the control to be a growth promoter)”. In addition, the “Crypto (10 uM) Mean % inhibition” value in assay [2] is 67%.
On the same counts, the results for `CC(Oc1ccccc1)C(=O)Nc1nc(-c2ccccn2)cs1` (centres unmarked) [MMV676411] are 16% and 86%.
As to `N#Cc1nc(-c2ccccc2)oc1S(=O)(=O)c1ccc(Cl)cc1` [MMV676412], in assay [1], the “Giardia (16 uM) Mean % inhibition” value is recorded as 49%. The “Crypto (10 uM) Mean % inhibition” value in assay [2] is listed as 77%.
On the same counts, the results for `Cc1ccc(NC(=O)CC2COc3ccccc3O2)cc1Cl` (centres unmarked) [MMV676431] are 18% and “X* (Mean or standard deviation are negative but not significantly different from the control to be a growth promoter)”.
With `Cc1ccc2nc(Cl)c(CNCc3cccs3)cc2c1` [MMV676439], the “Giardia (16 uM) Mean % inhibition” value in assay [1] is on record as 70%. In assay [2], the “Crypto (10 uM) Mean % inhibition” value came to 81%.
On the same counts, the results for `CC(C)c1ncc(-c2ccncc2)c(C2CCC(CNC(=O)c3cccnc3)CC2)n1` (centres unmarked) [MMV676442] are 12% and 74%.
As for `O=C(NC1CCCCC1)N1CCN(Cc2ccc3c(c2)OCO3)CC1` [MMV676444], the “Giardia (16 uM) Mean % inhibition” value in assay [1] is 30%. Further, the “Crypto (10 uM) Mean % inhibition” value in assay [2] came to 67%.
On the same counts, the results for `CCCn1c(CNc2ccccc2O)nc2ccccc21` [MMV676445] are 13% and “X* (Mean or standard deviation are negative but not significantly different from the control to be a growth promoter)”.
For `CCc1nc2ccccc2n1CC(O)COc1cc(C)ccc1Cl` (centres unmarked) [MMV676449], in assay [1], the “Giardia (16 uM) Mean % inhibition” value came to 46%. The “Crypto (10 uM) Mean % inhibition” value in assay [2] worked out at 37%.
Taken in the same sequence, the figures for `CCOC(=O)c1cc(-c2csc(Nc3c(C)cc(C)cc3C)n2)on1` [MMV676461] were 31% and 76%.
Consider `NC(CC(=O)c1ccc(Cl)cc1Cl)C(Cl)(Cl)Cl` (centres unmarked) [MMV676468], for which the “Giardia (16 uM) Mean % inhibition” value in assay [1] was found to be 55%. For the same compound, the “Crypto (10 uM) Mean % inhibition” value in assay [2] was “X* (Mean or standard deviation are negative but not significantly different from the control to be a growth promoter)”.
For `CCOc1ccc(OCC(=O)Nc2cc(C)cc(C)c2)cc1` [MMV676470], the “Giardia (16 uM) Mean % inhibition” value in assay [1] turned out to be 12%. Further, in assay [2], the “Crypto (10 uM) Mean % inhibition” value is listed as “X* (Mean or standard deviation are negative but not significantly different from the control to be a growth promoter)”.
Consider `COc1cccc(OC)c1C(=O)Nc1ccc(Cl)c(-c2nc3ccccc3s2)c1` [MMV676472], for which the “Giardia (16 uM) Mean % inhibition” value in assay [1] was 28%. The “Crypto (10 uM) Mean % inhibition” value in assay [2] is “X* (Mean or standard deviation are negative but not significantly different from the control to be a growth promoter)”.
Taken in the same sequence, the figures for `COc1ccccc1OCCCCn1c(C2CC2)nc2ccccc21` [MMV676474] were 3.27% and “X* (Mean or standard deviation are negative but not significantly different from the control to be a growth promoter)”.
On the same counts, the results for `Cc1cc(C)cc(COc2ccc3c(C)c(CCC(=O)O)c(=O)oc3c2C)c1` [MMV676476] are 35% and “X* (Mean or standard deviation are negative but not significantly different from the control to be a growth promoter)”.
A word on the EC50: it is the concentration that produces a half-maximal response. Turning to `CCc1c(C)nc(-n2nc(C)cc2NC(=O)c2ccccc2SC)[nH]c1=O` [MMV676477], the “Giardia (16 uM) Mean % inhibition” value in assay [1] is on record as 28%. In assay [2] (10 μM, 48 hours), the “C. parvum cell growth inhibition in the initial screen” value is no less than 95%. Moreover, the EC50 in assay [2] (Nluc C. parvum in HCT-8 cells, 48 hours, read-out: C. parvum EC50) turned out to be 220 nM. Further, in assay [2], the “Crypto (10 uM) Mean % inhibition” value was 96%.
For the compound `O=C(C1CCN(c2nnc(-n3cccc3)s2)CC1)N1CCC(Cc2ccccc2)CC1` [MMV676478], the “Giardia (16 uM) Mean % inhibition” value in assay [1] amounted to 9%. In addition, the “Crypto (10 uM) Mean % inhibition” value in assay [2] is listed as “X* (Mean or standard deviation are negative but not significantly different from the control to be a growth promoter)”.
Taken in the same sequence, the figures for `COC(=O)c1c(NC(=O)c2cc3ccccc3oc2=O)sc2c1CCN(Cc1ccccc1)C2` [MMV676480] were 7% and 63%.
As for `O=C(Nc1n[nH]c(=S)s1)c1cc(Br)ccc1Cl` [MMV676492], in assay [1], the “Giardia (16 uM) Mean % inhibition” value is “X* (Mean or standard deviation are negative but not significantly different from the control to be a growth promoter)”. For the same compound, the “Crypto (10 uM) Mean % inhibition” value in assay [2] is listed as 57%.
As to `Cc1ccc2oc(-c3cc(NC(=O)Cc4ccccc4)ccc3Cl)nc2c1` [MMV676509], in assay [1], the “Giardia (16 uM) Mean % inhibition” value came out at 27%. Besides, in assay [2], the “Crypto (10 uM) Mean % inhibition” value is listed as 56%.
In the case of `O=C(Nc1nc(-c2ccccn2)cs1)c1cncn1-c1ccccc1` [MMV676512], the “Giardia (16 uM) Mean % inhibition” value in assay [1] worked out at 10%. The “Crypto (10 uM) Mean % inhibition” value in assay [2] came to 93%.
For the compound `O=C(c1cc2ccccc2o1)N1CCN(Cc2ccc3c(c2)OCO3)CC1` [MMV676520], in assay [1], the “Giardia (16 uM) Mean % inhibition” value is listed as 0.776%. Moreover, in assay [2], the “Crypto (10 uM) Mean % inhibition” value worked out at 51%.
`Nc1cccnc1Nc1ccc(Cl)cc1` [MMV676524]: the “Giardia (16 uM) Mean % inhibition” value in assay [1] is 26%. Besides, the “Crypto (10 uM) Mean % inhibition” value in assay [2] came out at 83%.
On to `COc1ccc(-c2cc(NC(=O)c3ccc(F)cc3Cl)ccc2OC)cc1` [MMV676526], for which, in assay [1], the “Giardia (16 uM) Mean % inhibition” value amounted to 87%. Besides, in assay [2], the “Crypto (10 uM) Mean % inhibition” value came out at 46%.
Taken in the same sequence, the figures for `Cc1cccc(NC(=O)c2cc(S(=O)(=O)N(C)c3ccc(F)cc3)ccc2Cl)n1` [MMV676528] were “X* (Mean or standard deviation are negative but not significantly different from the control to be a growth promoter)” and 80%.
`COCC(C)NC(=O)CSc1ncnc2sc(-c3ccccc3)cc12` (centres unmarked) [MMV676536]: in assay [1], the “Giardia (16 uM) Mean % inhibition” value is 15%. Moreover, the “Crypto (10 uM) Mean % inhibition” value in assay [2] is “X* (Mean or standard deviation are negative but not significantly different from the control to be a growth promoter)”.
On the same counts, the results for `O=C(NCCc1c[nH]c2ccccc12)c1cc2ccccc2oc1=O` [MMV676539] are 7% and 22%.
As for `COc1ccc(Nc2ccccc2NC(=O)c2ccc(=O)[nH]c2)cc1` [MMV676554], the “Giardia (16 uM) Mean % inhibition” value in assay [1] was 21%. In addition, the “Crypto (10 uM) Mean % inhibition” value in assay [2] was found to be 61%.
In the case of `Cc1nnc(NCc2cccc(Cl)c2)c2ccccc12` [MMV676555], the “Giardia (16 uM) Mean % inhibition” value in assay [1] is listed as “X* (Mean or standard deviation are negative but not significantly different from the control to be a growth promoter)”. In addition, in assay [2], the “Crypto (10 uM) Mean % inhibition” value is listed as “X* (Mean or standard deviation are negative but not significantly different from the control to be a growth promoter)”.
